Experimental data reported in the NIST ThermoML archive (doi:10.1021/je101316g).
± gives the expanded uncertainty stated by the source.

Tests used:
[1] = 101.33 kPa, Liquid; for mass density: Vibrating tube method
[2] = refractive index (Na D-line) (dimensionless); conditions: 101.33 kPa, Liquid, Standard Abbe refractometry

| Structure (SMILES) | mass density ([1]; 293.15 K) [kg/m3] | viscosity ([1]; 298.15 K) [mPa·s] | mass density ([1]; 298.15 K) [kg/m3] | viscosity ([1]; 303.15 K) [mPa·s] | mass density ([1]; 303.15 K) [kg/m3] | viscosity ([1]; 308.15 K) [mPa·s] | mass density ([1]; 308.15 K) [kg/m3] | viscosity ([1]; 313.15 K) [mPa·s] | mass density ([1]; 313.15 K) [kg/m3] | viscosity ([1]; 318.15 K) [mPa·s] | mass density ([1]; 318.15 K) [kg/m3] | viscosity ([1]; 323.15 K) [mPa·s] | mass density ([1]; 323.15 K) [kg/m3] | viscosity ([1]; 328.15 K) [mPa·s] | mass density ([1]; 328.15 K) [kg/m3] | viscosity ([1]; 333.15 K) [mPa·s] | mass density ([1]; 333.15 K) [kg/m3] | viscosity ([1]; 338.15 K) [mPa·s] | mass density ([1]; 338.15 K) [kg/m3] | viscosity ([1]; 343.15 K) [mPa·s] | further results |
| --- | --- | --- | --- | --- | --- | --- | --- | --- | --- | --- | --- | --- | --- | --- | --- | --- | --- | --- | --- | --- | --- |
| CCCCC(CC)COC(=O)CC(C(=O)OCC(CC)CCCC)S(=O)(=O)[O-].CCCCCC[n+]1ccn(CCC#N)c1 (stereo not drawn) | 1092.7 ± 2.6 | 19896 ± 6400 | 1089 ± 2.6 | 12117 ± 3600 | 1085.4 ± 2.6 | 7571.4 ± 2100 | 1081.8 ± 2.5 | 4586.7 ± 1100 | 1078.3 ± 2.5 | 2939.5 ± 650 | 1074.8 ± 2.5 | 1947.7 ± 390 | 1071.3 ± 2.5 | 1264.7 ± 220 | 1067.9 ± 2.5 | 848.3 ± 130 | 1064.4 ± 2.5 | 579.4 ± 78 | 1061 ± 2.4 | 411.4 ± 48 | mass density ([1]; 343.15 K): 1057.6 ± 2.4 kg/m3; viscosity ([1]; 348.15 K): 278.6 ± 27 mPa·s; mass density ([1]; 348.15 K): 1054.2 ± 2.4 kg/m3; viscosity ([1]; 353.15 K): 191.2 ± 15 mPa·s; mass density ([1]; 353.15 K): 1050.7 ± 2.4 kg/m3; refractive index ([2]; 298.15 K): 1.4797 ± 0.00076; refractive index ([2]; 303.15 K): 1.47841 ± 0.00076; refractive index ([2]; 308.15 K): 1.47709 ± 0.00076; refractive index ([2]; 313.15 K): 1.4758 ± 0.00076; refractive index ([2]; 318.15 K): 1.47447 ± 0.00076; refractive index ([2]; 323.15 K): 1.47305 ± 0.00076; refractive index ([2]; 328.15 K): 1.47171 ± 0.00076; refractive index ([2]; 333.15 K): 1.47029 ± 0.00077 |
| CCCCCCn1cc[n+](CCC#N)c1.O=S(=O)([O-])C(F)(F)F | 1289.6 ± 4.6 | 1469.7 ± 270 | 1285.7 ± 4.6 | 991.9 ± 160 | 1281.9 ± 4.6 | 648.5 ± 91 | 1278.3 ± 4.6 | 437.8 ± 52 | 1274.6 ± 4.5 | 301.9 ± 30 | 1271 ± 4.5 | 214 ± 18 | 1267.4 ± 4.5 | 155.1 ± 10 | 1263.8 ± 4.5 | 102.7 ± 4.7 | 1260.2 ± 4.4 | 77.4 ± 2.5 | 1256.6 ± 4.4 | 54.8 ± 1.3 | viscosity ([1]; 293.15 K): 2243.6 ± 460 mPa·s; mass density ([1]; 343.15 K): 1253.1 ± 4.4 kg/m3; viscosity ([1]; 348.15 K): 40.1 ± 1 mPa·s; mass density ([1]; 348.15 K): 1249.2 ± 4.3 kg/m3; viscosity ([1]; 353.15 K): 29.4 ± 0.8 mPa·s; mass density ([1]; 353.15 K): 1245.8 ± 4.3 kg/m3; refractive index ([2]; 298.15 K): 1.52975 ± 0.0008; refractive index ([2]; 303.15 K): 1.52891 ± 0.00081; refractive index ([2]; 308.15 K): 1.52774 ± 0.00081; refractive index ([2]; 313.15 K): 1.52683 ± 0.00081; refractive index ([2]; 318.15 K): 1.5259 ± 0.00081; refractive index ([2]; 323.15 K): 1.52464 ± 0.00082; refractive index ([2]; 328.15 K): 1.52334 ± 0.00082; refractive index ([2]; 333.15 K): 1.52226 ± 0.00081 |
| CCCCCCn1cc[n+](CCC#N)c1.O=S(=O)([O-])c1ccccc1 [3-(2-cyanoethyl)-1-hexyl-1H-imidazolium benzenesulfonate] | 1226 ± 2.5 | 4268.1 ± 1000 | 1222.7 ± 2.5 | 2865.6 ± 630 | 1219.4 ± 2.5 | 1795.1 ± 350 | 1216.1 ± 2.5 | 1170.4 ± 200 | 1212.8 ± 2.5 | 781.3 ± 120 | 1209.6 ± 2.5 | 537.6 ± 70 | 1206.3 ± 2.5 | 359.9 ± 39 | 1203 ± 2.4 | 274.2 ± 26 | 1199.7 ± 2.4 | 181 ± 13 | 1196.5 ± 2.4 | 133.6 ± 7.6 | viscosity ([1]; 293.15 K): 7079.4 ± 1900 mPa·s; mass density ([1]; 343.15 K): 1193.3 ± 2.4 kg/m3; viscosity ([1]; 348.15 K): 94.6 ± 3.8 mPa·s; mass density ([1]; 348.15 K): 1190.1 ± 2.4 kg/m3; viscosity ([1]; 353.15 K): 70 ± 1.9 mPa·s; mass density ([1]; 353.15 K): 1187.8 ± 2.4 kg/m3; refractive index ([2]; 298.15 K): 1.527 ± 0.00066; refractive index ([2]; 303.15 K): 1.5261 ± 0.00067; refractive index ([2]; 308.15 K): 1.52499 ± 0.00068; refractive index ([2]; 313.15 K): 1.52382 ± 0.00068; refractive index ([2]; 318.15 K): 1.52266 ± 0.00068; refractive index ([2]; 323.15 K): 1.52145 ± 0.00068; refractive index ([2]; 328.15 K): 1.52025 ± 0.00069; refractive index ([2]; 333.15 K): 1.51899 ± 0.00069 |
| CCCCCCCCCCCCOS(=O)(=O)[O-].CCCCCCn1cc[n+](CCC#N)c1 [3-(2-cyanoethyl)-1-hexyl-1H-imidazolium dodecyl sulfate] | 1101.1 ± 2.3 | 13770 ± 4200 | 1097.8 ± 2.3 | 8252.7 ± 2300 | 1094.5 ± 2.3 | 5185.2 ± 1300 | 1091.2 ± 2.3 | 3354.6 ± 760 | 1088 ± 2.3 | 2051 ± 410 | 1084.7 ± 2.3 | 1301.8 ± 230 | 1081.5 ± 2.3 | 846.3 ± 130 | 1078.3 ± 2.3 | 566.9 ± 75 | 1075.1 ± 2.2 | 390.1 ± 44 | 1071.9 ± 2.2 | 274.9 ± 26 | mass density ([1]; 343.15 K): 1068.8 ± 2.2 kg/m3; viscosity ([1]; 348.15 K): 189.5 ± 14 mPa·s; mass density ([1]; 348.15 K): 1065.6 ± 2.2 kg/m3; viscosity ([1]; 353.15 K): 133.6 ± 7.7 mPa·s; mass density ([1]; 353.15 K): 1062.6 ± 2.2 kg/m3; refractive index ([2]; 298.15 K): 1.48409 ± 0.00073; refractive index ([2]; 303.15 K): 1.48269 ± 0.00073; refractive index ([2]; 308.15 K): 1.48125 ± 0.00073; refractive index ([2]; 313.15 K): 1.47991 ± 0.00072; refractive index ([2]; 318.15 K): 1.47863 ± 0.00073; refractive index ([2]; 323.15 K): 1.47702 ± 0.00074; refractive index ([2]; 328.15 K): 1.47566 ± 0.00073; refractive index ([2]; 333.15 K): 1.47422 ± 0.00073 |
| CCCCCCn1cc[n+](CCC#N)c1.O=C([O-])c1cccc(S(=O)(=O)O)c1 [3-(2-cyanoethyl)-1-hexyl-1H-imidazolium 3-sulfobenzoate] | 1248.1 ± 3.6 | 11463 ± 3400 | 1244.6 ± 3.6 | 7578.3 ± 2100 | 1241.2 ± 3.6 | 4765.8 ± 1200 | 1238 ± 3.6 | 3001.1 ± 670 | 1234.7 ± 3.6 | 1953.3 ± 390 | 1231.5 ± 3.5 | 1189.9 ± 210 | 1228.2 ± 3.5 | 830.5 ± 130 | 1225 ± 3.5 | 557.3 ± 74 | 1221.8 ± 3.5 | 352.1 ± 38 | 1218.6 ± 3.5 | 225.5 ± 19 | viscosity ([1]; 293.15 K): 19212 ± 6200 mPa·s; mass density ([1]; 343.15 K): 1215.4 ± 3.4 kg/m3; viscosity ([1]; 348.15 K): 133.6 ± 7.9 mPa·s; mass density ([1]; 348.15 K): 1212.1 ± 3.4 kg/m3; viscosity ([1]; 353.15 K): 92.8 ± 3.8 mPa·s; mass density ([1]; 353.15 K): 1208.9 ± 3.4 kg/m3; refractive index ([2]; 298.15 K): 1.52295 ± 0.00074; refractive index ([2]; 303.15 K): 1.52221 ± 0.00074; refractive index ([2]; 308.15 K): 1.52146 ± 0.00075; refractive index ([2]; 313.15 K): 1.52029 ± 0.00076; refractive index ([2]; 318.15 K): 1.51936 ± 0.00076; refractive index ([2]; 323.15 K): 1.518 ± 0.00078; refractive index ([2]; 328.15 K): 1.51666 ± 0.00079; refractive index ([2]; 333.15 K): 1.51502 ± 0.0008 |
